Where two headings read alike, the source gives them in different places.
Key:
human NPR1 = target: T1, human NPR1 (Homo sapiens, UniProt P16066); assay: Cellular cGMP production assay, human NPR1 expressing CHO-K1 cells (CisBio HTRF); type: cell-based; conditions: for AC50: cGMP production, 30 min at 37° C., 12-point dose-response from 30 μM; for Human NPR1 Amax (% of ANP): maximum cGMP production as percentage of the maximum cGMP produced with ANP
T1 construct: host or cells: CHO-K1
T1 sequence (P16066 33-1061): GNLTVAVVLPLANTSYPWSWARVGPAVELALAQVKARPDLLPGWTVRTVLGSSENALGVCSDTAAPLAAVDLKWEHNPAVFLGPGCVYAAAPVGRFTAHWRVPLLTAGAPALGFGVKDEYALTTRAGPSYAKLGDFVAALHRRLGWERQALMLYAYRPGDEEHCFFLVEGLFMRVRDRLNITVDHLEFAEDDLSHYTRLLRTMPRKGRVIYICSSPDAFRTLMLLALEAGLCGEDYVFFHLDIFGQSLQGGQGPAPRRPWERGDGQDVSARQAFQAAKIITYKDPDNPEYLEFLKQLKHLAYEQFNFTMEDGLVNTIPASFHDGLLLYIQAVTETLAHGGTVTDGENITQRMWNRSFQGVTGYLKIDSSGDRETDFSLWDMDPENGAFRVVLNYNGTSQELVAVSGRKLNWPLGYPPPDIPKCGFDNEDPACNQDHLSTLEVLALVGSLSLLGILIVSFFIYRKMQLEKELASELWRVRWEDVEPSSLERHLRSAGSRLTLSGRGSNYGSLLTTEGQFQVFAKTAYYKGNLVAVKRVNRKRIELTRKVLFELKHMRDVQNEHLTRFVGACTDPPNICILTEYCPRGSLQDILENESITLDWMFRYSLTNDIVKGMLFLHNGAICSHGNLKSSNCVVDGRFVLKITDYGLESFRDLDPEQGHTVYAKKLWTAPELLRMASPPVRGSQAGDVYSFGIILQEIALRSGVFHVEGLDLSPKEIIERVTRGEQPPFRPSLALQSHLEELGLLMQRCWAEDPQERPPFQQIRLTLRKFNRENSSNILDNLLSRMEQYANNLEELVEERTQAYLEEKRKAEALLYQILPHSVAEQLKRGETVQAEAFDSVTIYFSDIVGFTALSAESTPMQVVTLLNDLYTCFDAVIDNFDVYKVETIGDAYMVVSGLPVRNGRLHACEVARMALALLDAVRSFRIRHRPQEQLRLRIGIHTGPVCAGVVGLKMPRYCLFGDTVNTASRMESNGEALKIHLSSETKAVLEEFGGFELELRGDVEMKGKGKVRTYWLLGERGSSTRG
Outline: (§1)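 Cells receive IBMX (1 mM) assay buffer plus test compound over twelve threefold dilutions starting at 30 μM, and cGMP accumulates for 30 min at 37 °C. Lysates are then incubated one hour at room temperature with d2-labelled cGMP and cryptate-labelled antibody before time-resolved fluorescence reading.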

monkey NPR1 = monkey NPR1 (Macaca fascicularis, UniProt A0A7N9DBT9); assay: Cellular cGMP production assay, monkey NPR1 expressing CHO-K1 cells (CisBio HTRF); type: cell-based; conditions: for Monkey NPR1 Amax (% of ANP): maximum cGMP production as percentage of the maximum cGMP produced with ANP
Outline: as §1

[1] = cGMP production, monkey NPR1 CHO-K1 cells, 30 min at 37° C., 12-point dose-response from 30 μM, read-out: Monkey NPR1 AC50

Chain of monkey NPR1 (A0A7N9DBT9 entry or part of it): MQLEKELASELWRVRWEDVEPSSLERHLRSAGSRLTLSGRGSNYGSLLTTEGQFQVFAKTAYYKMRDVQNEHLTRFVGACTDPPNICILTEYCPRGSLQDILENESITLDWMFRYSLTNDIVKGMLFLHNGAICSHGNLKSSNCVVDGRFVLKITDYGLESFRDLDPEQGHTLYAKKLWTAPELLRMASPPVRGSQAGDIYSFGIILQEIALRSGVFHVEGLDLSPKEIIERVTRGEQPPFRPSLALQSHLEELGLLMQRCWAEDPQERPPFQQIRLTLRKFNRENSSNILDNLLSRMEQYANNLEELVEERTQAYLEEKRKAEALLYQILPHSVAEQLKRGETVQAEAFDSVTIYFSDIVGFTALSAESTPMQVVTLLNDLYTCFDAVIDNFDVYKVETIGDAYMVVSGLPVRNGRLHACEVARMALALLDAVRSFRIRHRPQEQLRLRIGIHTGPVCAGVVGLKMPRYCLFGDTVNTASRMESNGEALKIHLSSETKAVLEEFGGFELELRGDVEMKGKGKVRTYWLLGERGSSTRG

Compound | AC50 (human NPR1) [nM] | Human NPR1 Amax (% of ANP) (human NPR1) | AC50 (monkey NPR1) [nM] | Monkey NPR1 Amax (% of ANP) (monkey NPR1; monkey NPR1 CHO-K1 cells) | AC50 (monkey NPR1; [1]) [nM]
CCn1cc([C@H](CN2C3CCCC2CCC3)Nc2nc(N[C@H](C)c3ccc(C(=O)O)cc3)nc3c2C[C@H](c2cccc(F)c2)CC3)cn1 [Compound 153, 4-((R)-1-(((R)-4-(((R)-2-((1S,5S)-9-azabicyclo[3.3.1]nonan-9-yl)-1-(1-ethyl-1H-pyrazol-4-yl)ethyl)amino)-6-(3-fluorophenyl)-5,6,7,8-tetrahydroquinazolin-2-yl)amino)ethyl)benzoic acid] | 1200 | 93.868 % of ANP | 753 | 98.372 % of ANP | –
CC[C@@H](Nc1nc2c(c(N[C@@H](CN3CCC[C@H](C)C3)c3cnn(C)c3)n1)C[C@H](c1ccccc1)CC2)[C@H]1CC[C@H](C(=O)O)CC1 [Compound 32, (1R,4r)-4-((R)-1-(((R)-4-(((R)-1-(1-methyl-1H-pyrazol-4-yl)-2-((S)-3-methylpiperidin-1-yl)ethyl)amino)-6-phenyl-5,6,7,8-tetrahydroquinazolin-2-yl)amino)propyl)cyclohexane-1-carboxylic acid] | 144 | 99.842 % of ANP | – | 92.720 % of ANP | 84
CC[C@H]([C@H]1CC[C@H](C(=O)O)CC1)N(C)c1nc2c(c(N[C@@H](CN3C4CCC3CC4)c3cnn(C)c3)n1)C[C@H](c1ccc(F)cc1)CC2 [Compound 63, (1R,4r)-4-((R)-1-(((R)-4-(((R)-2-(7-azabicyclo[2.2.1]heptan-7-yl)-1-(1-methyl-1H-pyrazol-4-yl)ethyl)amino)-6-(4-fluorophenyl)-5,6,7,8-tetrahydroquinazolin-2-yl)(methyl)amino)propyl)cyclohexane-1-carboxylic acid] | 210 | 100.629 % of ANP | 196 | 99.684 % of ANP | –
CC[C@H]([C@H]1CC[C@H](C(=O)O)CC1)N(C)c1nc2c(c(N[C@@H](CN3CCCCC3)c3cnn(C)c3)n1)CN(c1cccc(F)c1)CC2 [Compound 157, (1R,4r)-4-((R)-1-((6-(3-fluorophenyl)-4-(((R)-1-(1-methyl-1H-pyrazol-4-yl)-2-(piperidin-1-yl)ethyl)amino)-5,6,7,8-tetrahydropyrido[4,3-d]pyrimidin-2-yl)(methyl)amino)propyl)cyclohexane-1-carboxylic acid] | 1430 | 99.549 % of ANP | – | 105.667 % of ANP | 999
CC[C@@H](Nc1nc2c(c(N[C@@H](CN3CCCC[C@H]3C)c3cnn(CC)c3)n1)C[C@H](c1ccccc1)CC2)[C@H]1CC[C@H](C(=O)O)CC1 [Compound 64, (1R,4r)-4-((R)-1-(((R)-4-(((R)-1-(1-ethyl-1H-pyrazol-4-yl)-2-((R)-2-methylpiperidin-1-yl)ethyl)amino)-6-phenyl-5,6,7,8-tetrahydroquinazolin-2-yl)amino)propyl)cyclohexane-1-carboxylic acid] | 213 | 93.045 % of ANP | – | 92.911 % of ANP | 175
CC[C@@H](Nc1nc2c(c(N[C@@H](CN3CCCC3)c3ccccc3)n1)C[C@@H](c1ccccc1)CC2)[C@H]1CC[C@H](C(=O)O)CC1 [Compound 115, (1R,4r)-4-((R)-1-(((S)-6-phenyl-4-(((R)-1-phenyl-2-(pyrrolidin-1-yl)ethyl)amino)-5,6,7,8-tetrahydroquinazolin-2-yl)amino)propyl)cyclohexane-1-carboxylic acid] | 474 | 111.049 % of ANP | – | 106.285 % of ANP | 387
CC[C@H]([C@H]1CC[C@H](C(=O)O)CC1)N(C)c1nc2c(c(N[C@@H](CN3CCC[C@H](C)C3)c3ccnn3C)n1)C[C@H](c1cccc(F)c1)CC2 [Compound 161, (1R,4r)-4-((R)-1-(((R)-6-(3-fluorophenyl)-4-(((S)-1-(1-methyl-1H-pyrazol-5-yl)-2-((S)-3-methylpiperidin-1-yl)ethyl)amino)-5,6,7,8-tetrahydroquinazolin-2-yl)(methyl)amino)propyl)cyclohexane-1-carboxylic acid] | 1680 | 108.479 % of ANP | – | 97.242 % of ANP | 989
CC[C@H]([C@H]1CC[C@H](C(=O)O)CC1)N(C)c1nc2c(c(N[C@@H](CN3CCC[C@H](CF)C3)c3cnn(C)c3)n1)C[C@H](c1ccccc1)CC2 [Compound 87, (1R,4r)-4-((R)-1-(((R)-4-(((R)-2-((S)-3-(fluoromethyl)piperidin-1-yl)-1-(1-methyl-1H-pyrazol-4-yl)ethyl)amino)-6-phenyl-5,6,7,8-tetrahydroquinazolin-2-yl)(methyl)amino)propyl)cyclohexane-1-carboxylic acid] | 292 | 93.715 % of ANP | – | 100.104 % of ANP | 235
CC[C@@H](Nc1nc2c(c(N[C@@H](CN3C4CC5CC(C4)CC3C5)c3cnn(CC)c3)n1)C[C@H](c1ccccc1)CC2)[C@H]1CC[C@H](C(=O)O)CC1 [Compound 38, (1R,4r)-4-((R)-1-(((R)-4-(((R)-2-((1R,3R,5R,7R)-2-azaadamantan-2-yl)-1-(1-ethyl-1H-pyrazol-4-yl)ethyl)amino)-6-phenyl-5,6,7,8-tetrahydroquinazolin-2-yl)amino)propyl)cyclohexane-1-carboxylic acid] | 161 | 101.675 % of ANP | – | 101.007 % of ANP | 83
CC[C@@H](Nc1nc2c(c(N[C@@H](CN3C4CCCC3CC4)c3ccccc3)n1)C[C@H](c1ccccc1)CC2)[C@H]1CC[C@H](C(=O)O)CC1 [Compound 49, (1R,4r)-4-((1R)-1-(((6R)-4-(((1R)-2-(8-azabicyclo[3.2.1]octan-8-yl)-1-phenylethyl)amino)-6-phenyl-5,6,7,8-tetrahydroquinazolin-2-yl)amino)propyl)cyclohexane-1-carboxylic acid] | 185 | 104.186 % of ANP | 138 | 106.033 % of ANP | –
CC[C@@H](N(C)c1nc2c(c(N[C@@H](CN3CCC[C@H](C)C3)c3cnn(CC)c3)n1)C[C@H](c1cccc(F)c1)CC2)C12CC(C(=O)O)(C1)C2 [Compound 13, 3-((R)-1-(((R)-4-(((R)-1-(1-ethyl-1H-pyrazol-4-yl)-2-((S)-3-methylpiperidin-1-yl)ethyl)amino)-6-(3-fluorophenyl)-5,6,7,8-tetrahydroquinazolin-2-yl)(methyl)amino)propyl)bicyclo[1.1.1]pentane-1-carboxylic acid] | 94 | 99.405 % of ANP | – | 100.145 % of ANP | 64
C[C@@H](Nc1nc2c(c(N[C@@H](CN3C4CCCC3CCC4)c3cnn(C)c3)n1)C[C@H](c1ccccc1)CC2)c1ccc(C(=O)O)c(F)c1 [Compound 168, 4-((R)-1-(((R)-4-(((R)-2-((1S,5S)-9-azabicyclo[3.3.1]nonan-9-yl)-1-(1-methyl-1H-pyrazol-4-yl)ethyl)amino)-6-phenyl-5,6,7,8-tetrahydroquinazolin-2-yl)amino)ethyl)-2-fluorobenzoic acid] | 2230 | 96.777 % of ANP | 1540 | 93.654 % of ANP | –
CC[C@H](N(C)c1nc2c(c(N[C@@H](CN3CCC[C@@H](CF)C3)c3cnn(C)c3)n1)C[C@@](C)(c1ccccc1)CC2)C12CC(C(=O)O)(C1)C2 [Compound 36, 3-((S)-1-(((S)-4-(((R)-2-((R)-3-(fluoromethyl)piperidin-1-yl)-1-(1-methyl-1H-pyrazol-4-yl)ethyl)amino)-6-methyl-6-phenyl-5,6,7,8-tetrahydroquinazolin-2-yl)(methyl)amino)propyl)bicyclo[1.1.1]pentane-1-carboxylic acid] | 150 | 101.036 % of ANP | – | 101.251 % of ANP | 133

Source: patent US12129246B1, “Hydroquinazoline derivatives for the treatment of a disease or disorder” (Novartis AG, priority 2023, dated 2024)
